Source: patent publication US20160115186A1, “PHOSPHORIC ACID/PHOSPHONIC ACID DERIVATIVES AND MEDICINAL USES THEREOF” (priority 2013, published 2016)
Read-outs that look alike come from different tables or passages of the source.

What was measured:
[1] = test system: liver damage in mice caused by CCl4; assay type: in vivo, Kunmin mice; settings: serum, CCl4 model, 0.2 mmol oral twice, 24 hours after second administration
Procedure: Kunmin mice (20 g) were grouped randomly (8/group). 0.2 mmol of a compound to be tested was orally administered; after 1 hour post-dosing, a 0.1% peanut oil solution of CCl4 was subcutaneously injected (10 mL/kg), to prepare a liver damage model; the normal saline was injected as a normal control group. After modeling for 12 hours, 0.2 mmol of the compound to be tested was orally administrated again. After 24 hours from the second administration, blood samples were collected to take serum specimen so as to determine ALT, AST.

[2] = Evaluation of liver targeting property (active drug in liver and blood, HPLC-MS/MS); assay type: in vivo, Balb/C mice; settings: intragastric, dose equimolar to fosfomycin 200 mg/kg, active drug (free phosphonic or phosphoric acid)
Source text: Instrument: Finnigan Co. USA, TSQ Quantum-type liquid chromatography-mass spectrometry (LC/MS/MS), consisting of Finnigan Surveyor LC pump. Surveyor AS automatic sampler, electrospray ionization source (ESI) and triple tandem mass spectrometer. The control software is X calibur 1.4, Lcquan 2.0 data processing system is used for mass spectrometry data analysis. The chromatography column is Discovery ODS column (250 mm×4.6 mm, 5 μm), C18 guard column (4 mm×3.0 mm), the mobile phase is methanol-water-formic acid (10-30:90-70:0.5, V/V/V), the flow rate is 0.7 ml/min; the sample amount is 20 μL; and the column temperature is room temperature.

DHBV = experiment: animal or person; assay type: in vivo, sheldrakes; settings: for Inhibition ratio (%) Day 14 of dosing / Inhibition ratio (%) day 7 after drug withdrawal: serum DHBV DNA; for inhibition in vivo at 25 mg/kg: Duck hepatitis B virus, po, 336 h
Procedure: The sheldrakes infected by vertical transmission and being positive in DHBV DNA detection were grouped randomly, 5/group. Water and different doses of the compound to be tested were intragastrically administrated, respectively, once a day, for 14 days. Venous blood samples were collected pre-dosing, at day 14 of dosing and at day 7 after drug withdrawal, the serum DHBV DNA content was measured using external standard TaqMan real-time fluorescence PCR method, and the inhibition ratio was calculated, as compared to the solvent group.

HBV = experiment: microbe, parasite or virus in culture; assay type: cell-based
Procedure: At day 10 post-dosing, 100 μl supernate was taken and the content of HBV DNA was measured by the method of Quantitative PCR to calculate IC50 value.

[3] = test system: liver damage in mice caused by D-aminogalactose; assay type: in vivo, Kunmin mice; settings: serum, D-aminogalactose 750 mg/kg model, 0.2 mmol oral twice, 24 hours after second administration
Procedure: Kunmin mice (20 g) were grouped randomly (8/group). 0.2 mmol of a compound to be tested was orally administered; after 2 hours post-dosing, D-aminogalactose was intraperitoneally injected at a dose of 750 mg/kg to prepare a liver damage model, and the normal saline was subcutaneously injected as a normal control group. After modeling for 12 hours, 0.2 mmol of the compound to be tested was orally administrated again. After 24 hours from the second administration, blood samples were collected to take serum specimen so as to determine ALT, AST.

Hep G 2.2.15 cells = experiment: in vitro; assay type: cell-based; settings: MTT, day 3 post-dosing
Procedure: (§1) Hep G 2.2.15 cells were inoculated in a 96-well plate (with cell number being 5.5×10^4) to continually cultivate for 3 days, new culture solutions containing different concentrations of drugs were added, and 3 wells were provided in parallel; at day 3 post-dosing, MTT was added until 7.5 mg/ml, and continued to cultivate for 2 hours, the supernate was discarded, isopropanol containing 10% […] was added, 120 μl/well, and 0.4 μl/well was further added.

[4] = Kamiya et al. 2002; read-out: cytotoxicity CC50; cited from earlier work
in vitro = assay type: cell-based; settings: human; Hep G 2.2.15 cells, MTT, day 3 post-dosing
Procedure: as §1

[5] = after MCC-478, phase I clinical trial, Chan et al. 2005; cited from earlier work
[6] = 25 mg/kg intragastric once a day for 14 days
[7] = Hep G 2.2.15 cells, HBV DNA in supernate at day 10 post-dosing, read-out: IC50
[8] = 10 mg/kg intragastric once a day for 14 days

| Compound | ALT [1] [U/L] | AST [1] [U/L] | Cliver/Cblood ([2]; 1 h post-dosing) | Cliver/Cblood ([2]; 6 h post-dosing) | IC50 (HBV; [7]) [nM] | ALT [3] [U/L] | AST [3] [U/L] | CC50 (Hep G 2.2.15 cells) [nM] | also measured |
| --- | --- | --- | --- | --- | --- | --- | --- | --- | --- |
| CC(C)OC(=O)[C@H](C)N[P@](=O)(CO[C@H](C)Cn1cnc2c(N)ncnc21)Oc1ccc2c(c1)OCO2 [Compound I21-b] | 251 | 152 | 9.15 | 14.37 | 12 | 514 | 268 | – | Inhibition ratio (%) Day 14 of dosing (DHBV; [6]): 82.3%; Inhibition ratio (%) day 7 after drug withdrawal (DHBV; [6]): 39.2% |
| COC(=O)C(C)NP(=O)(OCCOCn1cnc2c(=O)[nH]c(N)nc21)Oc1ccc2c(c1)OCO2 (centres unmarked) [Compound I41] | – | – | – | – | – | – | – | > 200000 | Inhibition ratio (%) Day 14 of dosing (DHBV; [8]): 72.5%; Inhibition ratio (%) day 7 after drug withdrawal (DHBV; [8]): 15.7% |
| COc1ccc(Sc2nc(N)nc3c2ncn3CCOCP(=O)(O)OCC(F)(F)F)cc1 [Compound 602074] | – | – | – | – | – | – | – | – | CC50 [4]: 548000 nM |
| (benzo[1,3]dioxolan-5-yl) [5-[2-amino-5-(2-methylpropyl)-thiazol-4-yl]-furan-2-yl]-phosphonate-(1-isopropoxycarbonylethylamino)-phosphonamide [Compound I43] | 507 | 280 | – | – | – | 256 | 517 | > 200000 | – |
| CC(C)OC(=O)[C@H](C)N[P@](=O)(CO[C@H](C)Cn1cnc2c(N)ncnc21)Oc1ccccc1.O=C(O)/C=C/C(=O)O [GS-7340, 9-[(R)-2-[[(S)-[[(S)-1-(isopropoxycarbonyl)-ethyl]-amino]-phenoxylphosphonyl]-methoxyl]-propyl]-adenine fumarate, reference compound] | 2483 | 2645 | – | – | 71 | 1064 | 1320 | 94200 | – |
| CC(C)OC(=O)[C@H](C)N[P@@](=O)(CO[C@H](C)Cn1cnc2c(N)ncnc21)Oc1ccc2c(c1)OCO2 [Compound I21-a] | 353 | 191 | 8.45 | 12.02 | 150 | 379 | 169 | – | Inhibition ratio (%) Day 14 of dosing (DHBV; [6]): 70.8%; Inhibition ratio (%) day 7 after drug withdrawal (DHBV; [6]): 25.0% |
| CC(NP(=O)(OCCOCn1cnc2c(=O)[nH]c(N)nc21)Oc1ccc2c(c1)OCO2)C(=O)OC1CCCCC1 (centres unmarked) [Compound I28] | – | – | – | – | – | – | – | > 200000 | – |
| COc1ccc(Sc2nc(N)nc3c2ncn3CCOCP(=O)(N[C@H](C)C(=O)OC(C)C)Oc2ccc3c(c2)OCO3)cc1 (some centres unmarked) [Compound I26, 2-amino-6-(4-methoxylphenyl)thio-9-[[[(((benzo[1,3]dioxolan-5-yl)-oxyl)-1-isopropyloxylcarbonylethylamino)-phosphonyl]-methoxyl]-ethyl]-purine] | 521 | 363 | – | – | – | 212 | 586 | – | inhibition in vivo at 25 mg/kg (DHBV; read-out: Inhibition ratio (%) Day 14 of dosing): 93.5%; inhibition in vivo at 25 mg/kg (DHBV; read-out: Inhibition ratio (%) day 7 after drug withdrawal): 11.5%; CC50 at 3 days (in vitro): > 200000 nM; IC50 (HBV; Hepatitis B virus, HepG2.2.15, 240 h): 39 nM |
| CC(C)OC(=O)C(C)NP(=O)(OCCOCn1cnc2c(=O)[nH]c(N)nc21)Oc1ccc2c(c1)OCO2 (centres unmarked) [Compound I27] | 663 | 940 | 11.75 | 8.02 | 35 | 713 | 522 | > 200000 | Inhibition ratio (%) Day 14 of dosing (DHBV; [8]): 80.6%; Inhibition ratio (%) day 7 after drug withdrawal (DHBV; [8]): 10.5% |
| COc1ccc(Sc2nc(N)nc3c2ncn3CCOCP(=O)(O)O)cc1 [Compound 602076] | – | – | – | – | – | – | – | – | blood concentration relative to that of the monoester 602074 [5]: one tenth |
